Test results reported in article PMC6976638, “Screening of natural compounds that targets glutamate racemase of Mycobacterium tuberculosis reveals the anti-tubercular potential of flavonoids” (Scientific Reports, 2020).

Tests used:
[1] = molecular target: Glutamate racemase (MTB-MurI) (Mycobacterium tuberculosis, UniProt P9WPW9); experiment: GDH-coupled racemization assay (A340), Lineweaver-Burk and Dixon plots; […]; assay type: biochemical
[2] = system: N[C@H](CCC(=O)O)C(=O)O; experiment: purified protein; settings: substrate binding site; Cys75 and Cys185 catalytic residues

Sequence of Glutamate racemase (MTB-MurI) (P9WPW9 whole entry, looked up): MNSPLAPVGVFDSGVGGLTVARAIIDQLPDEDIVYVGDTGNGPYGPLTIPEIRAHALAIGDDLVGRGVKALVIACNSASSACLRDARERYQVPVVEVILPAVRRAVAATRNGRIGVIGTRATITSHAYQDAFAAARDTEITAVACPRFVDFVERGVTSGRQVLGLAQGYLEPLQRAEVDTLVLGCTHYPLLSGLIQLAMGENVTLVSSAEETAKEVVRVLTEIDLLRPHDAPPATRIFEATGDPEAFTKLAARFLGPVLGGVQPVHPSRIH

Row | Compound | Ki [1] [µM] | Km [2] [µM]
1 | O=C1C[C@@H](c2ccc(O)cc2)Oc2cc(O)cc(O)c21 [naringenin] | 23.8 | 
2 | O=c1c(O)c(-c2ccc(O)c(O)c2)oc2cc(O)cc(O)c12 [quercetin] | 20.8 | 
3 | Glutamate racemase (MTB-MurI) (Mycobacterium tuberculosis H37Rv) |  | 499
